From US20090304720A1, “Active Agent-Loaded Nanoparticles Based On Hydrophilic Proteins” (LTS Lohmann Therapie-Systeme AG, priority 2006, published 2009) come the findings set out here.

For the assay, the system named is mice. Briefly: tail-flick test, analgesia (nociceptive response) after intravenous injection. The format is in vivo, mouse. Particulars: 7.0 mg/kg loperamide, cut-off ten seconds = 100% MPE. How it is done:
The preparations were applied intravenously to mice, at a dosage of 7.0 mg/kg loperamide. Based on an average body weight of a mouse of 20 g, the animals received an application amount of 200 μl of the above-mentioned preparation.
With the aid of this system, the analgesic effects shown in FIG. 1 were achieved after intravenous injection using the above-mentioned active agent loperamide. Analgesia (Nociceptive Response) was detected by the tail-flick test, wherein a hot beam of light is projected onto the tail of the mouse and the time that passes until the mouse flicks away its tail is measured. After ten seconds (=100% MPE) the experiment is discontinued so as not to cause injury to the mouse. Negative MPE values occur in those cases where following administration of the preparation, the mouse flicks away its tail earlier than before the treatment.
As a comparison, a loperamide solution 0.7 mg/ml in 2.6%-vol. ethanol was used.
(Hot-plate and tail-flick tests time the reaction to a heat stimulus.)

As for `CN(C)C(=O)C(CCN1CCC(O)(c2ccc(Cl)cc2)CC1)(c1ccccc1)c1ccccc1` [loperamide], the “analgesic effect (maximal possible effect, MPE)” value was “no analgesic effect”.
